Assay results published in patent US11472797B2, “Pesticidally active pyrazole derivatives” (SYNGENTA PARTICIPATIONS AG, priority 2017, dated 2022).

Assays:
[1] = tested on: Thrips tabaci (Onion Thrips); test: Thrips tabaci sunflower leaf disc spray test; format: in vivo; conditions: foliar, 144 h, application rate 200 ppm, population of mixed ages, 6 days after infestation
Experimental: Thrips tabaci (Onion Thrips):
(§1) Sunflower leaf discs were placed on agar in 24-well microtiter plates and sprayed with aqueous test solutions prepared from 10,000 ppm DMSO stock solutions. After drying the leaf discs were infested with a thrips population of mixed ages. The samples were assessed for mortality 6 days after infestation.

[2] = tested on: Euschistus heros (Neotropical Brown Stink Bug); test: Euschistus heros soybean leaf spray test; format: in vivo; conditions: 120 h, application rate 200 ppm, N2 nymphs, 5 days after infestation, read-out: effect in at least one of the two categories (mortality or growth inhibition)
Experimental: Euschistus heros (Neotropical Brown Stink Bug)
Soybean leaves on agar in 24-well microtiter plates were sprayed with aqueous test solutions prepared from 10,000 ppm DMSO stock solutions. After drying the leaves were infested with N2 nymphs. The samples were assessed for mortality and growth inhibition in comparison to untreated samples 5 days after infestation. The following compounds gave an effect of at least 80% in at least one of the two categories (mortality or growth inhibition) at an application rate of 200 ppm: 1

[3] = tested on: Tetranychus urticae (Two-Spotted Spider Mite); test: Tetranychus urticae bean leaf disc spray test; format: in vivo; conditions: foliar, 192 h
Experimental: Tetranychus urticae (Two-Spotted Spider Mite):
as §1, with “Bean” for “Sunflower”, “discs” for “discs were placed”, “were” for “and”, “mite” for “thrips”, “on mixed population (mobile stages) 8” for “6”

[4] = tested on: Diabrotica Balteata, (Corn Root Worm); test: Diabrotica balteata maize sprout spray test; format: in vivo; conditions: 96 h, application rate 200 ppm, L2 larvae, 4 days after infestation, read-out: effect in at least one of the two categories (mortality or growth inhibition)
Experimental: Diabrotica Balteata, (Corn Root Worm) Maize sprouts, placed on an agar layer in 24-well microtiter plates were treated with aqueous test solutions prepared from 10,000 ppm DMSO stock solutions by spraying. After drying, the plates were infested with L2 larvae (6 to 10 per well). The samples were assessed for mortality and growth inhibition in comparison to untreated samples 4 days after infestation. The following compounds gave an effect of at least 80% in at least one of the two categories (mortality or growth inhibition) at an application rate of 200 ppm: 1, 2, 3, 5 and 6.

[5] = tested on: Spodoptera littoralis (Egyptian Cotton Leaf Worm); test: Spodoptera littoralis cotton leaf disc spray test; format: in vivo; conditions: foliar, 72 h, application rate 200 ppm, L1 larvae, 3 days after infestation, read-out: control (at least one of mortality, anti-feedant effect, and growth inhibition)
Experimental: Spodoptera littoralis (Egyptian Cotton Leaf Worm)
Cotton leaf discs were placed on agar in 24-well microtiter plates and sprayed with aqueous test solutions prepared from 10,000 ppm DMSO stock solutions. After drying the leaf discs were infested with five L1 larvae. The samples were assessed for mortality, anti-feedant effect, and growth inhibition in comparison to untreated samples 3 days after infestation. Control of Spodoptera littoralis by a test sample is when at least one of mortality, anti-feedant effect, and growth inhibition is higher than the untreated sample.

[6] = tested on: Plutella xylostella (Diamond Back Moth); test: Plutella xylostella artificial diet test; format: in vivo; conditions: 120 h, application rate 200 ppm, L2 larvae, 5 days after infestation, read-out: effect in at least one of the two categories (mortality or growth inhibition)
Experimental: Plutella xylostella (Diamond Back Moth):
24-well microtiter plates with artificial diet were treated with aqueous test solutions prepared from 10,000 ppm DMSO stock solutions by pipetting. After drying, the plates were infested with L2 larvae (10 to 15 per well). The samples were assessed for mortality and growth inhibition in comparison to untreated samples 5 days after infestation. The following compounds gave an effect of at least 80% in at least one of the two categories (mortality or growth inhibition) at an application rate of 200 ppm: 1, 2, 3, 4, 5, 6, 7, 8, 9, 11 and 12.

| SMILES | mortality at 200 ppm [1] [%] | percent effect (mortality or growth inhibition) at 200 ppm [2] [%] | mortality at 200 ppm [3] [%] | percent effect (mortality or growth inhibition) at 200 ppm [4] [%] | mortality at 200 ppm [5] [%] | percent effect (mortality or growth inhibition) at 200 ppm [6] [%] | melting point [°C] |
| --- | --- | --- | --- | --- | --- | --- | --- |
| Cn1nc(OC(F)(F)C(F)C(F)(F)F)c(C(F)(F)F)c1-c1cc(-c2cc(C(=O)NC3CC3)c(C#N)s2)on1 (stereo not shown) [Example 1, 2-cyano-N-cyclopropyl-5-[3-[5-(1,1,2,3,3,3-hexafluoropropoxy)-2-methyl-4-(trifluoromethyl)pyrazol-3-yl]isoxazol-5-yl]thiophene-3-carboxamide] | ≥ 80 | ≥ 80 | ≥ 80 | ≥ 80 | ≥ 80 | ≥ 80 | – |
| CN(C(=O)c1cc(-c2cc(-c3c(C(F)(F)F)c(OC(F)(F)C(F)C(F)(F)F)nn3C)no2)sc1C#N)C1CC1 (stereo not shown) [Example 2, 2-cyano-N-cyclopropyl-5-[3-[5-(1,1,2,3,3,3-hexafluoropropoxy)-2-methyl-4-(trifluoromethyl)pyrazol-3-yl]isoxazol-5-yl]-N-methyl-thiophene-3-carboxamide] | ≥ 80 | – | ≥ 80 | ≥ 80 | – | ≥ 80 | – |
| CCN(C(=O)c1cc(-c2cc(-c3c(C(F)(F)F)c(OC(F)(F)C(F)C(F)(F)F)nn3C)no2)sc1C#N)C1CC1 (stereo not shown) [Example 3, 2-cyano-N-cyclopropyl-N-ethyl-5-[3-[5-(1,1,2,3,3,3-hexafluoropropoxy)-2-methyl-4-(trifluoromethyl)pyrazol-3-yl]isoxazol-5-yl]thiophene-3-carboxamide] | ≥ 80 | – | – | ≥ 80 | – | ≥ 80 | – |
| Cn1nc(OC(F)(F)C(F)C(F)(F)F)c(C(F)(F)F)c1-c1cc(-c2cc(C(=O)NC3(C#N)CC3)c(C#N)s2)on1 (stereo not shown) [Example 4, 2-cyano-N-(1-cyanocyclopropyl)-5-[3-[5-(1,1,2,3,3,3-hexafluoropropoxy)-2-methyl-4-(trifluoromethyl)pyrazol-3-yl]isoxazol-5-yl]thiophene-3-carboxamide] | ≥ 80 | – | – | – | – | ≥ 80 | – |
| CN(C(=O)c1cc(-c2cc(-c3c(C(F)(F)F)c(OC(F)(F)C(F)C(F)(F)F)nn3C)no2)sc1C#N)C1(C#N)CC1 (stereo not shown) [Example 5, 2-cyano-N-(1-cyanocyclopropyl)-5-[3-[5-(1,1,2,3,3,3-hexafluoropropoxy)-2-methyl-4-(trifluoromethyl)pyrazol-3-yl]isoxazol-5-yl]-N-methyl-thiophene-3-carboxamide] | ≥ 80 | – | – | ≥ 80 | ≥ 80 | ≥ 80 | – |
| CCN(C(=O)c1cc(-c2cc(-c3c(C(F)(F)F)c(OC(F)(F)C(F)C(F)(F)F)nn3C)no2)sc1C#N)C1(C#N)CC1 (stereo not shown) [Example 6, 2-cyano-N-(1-cyanocyclopropyl)-N-ethyl-5-[3-[5-(1,1,2,3,3,3-hexafluoropropoxy)-2-methyl-4-(trifluoromethyl)pyrazol-3-yl]isoxazol-5-yl]thiophene-3-carboxamide] | ≥ 80 | – | – | ≥ 80 | ≥ 80 | ≥ 80 | – |
| Cn1nc(OC(F)(F)C(F)C(F)(F)F)c(C(F)(F)F)c1-c1cc(-c2cc(C(=O)NC3CC3)c(Cl)s2)on1 (stereo not shown) [Example 7, 2-chloro-N-cyclopropyl-5-[3-[5-(1,1,2,3,3,3-hexafluoropropoxy)-2-methyl-4-(trifluoromethyl)pyrazol-3-yl]isoxazol-5-yl]thiophene-3-carboxamide] | – | – | – | – | ≥ 80 | ≥ 80 | – |
| CN(C(=O)c1cc(-c2cc(-c3c(C(F)(F)F)c(OC(F)(F)C(F)C(F)(F)F)nn3C)no2)sc1Cl)C1CC1 (stereo not shown) [Example 8, 2-chloro-N-cyclopropyl-5-[3-[5-(1,1,2,3,3,3-hexafluoropropoxy)-2-methyl-4-(trifluoromethyl)pyrazol-3-yl]isoxazol-5-yl]-N-methyl-thiophene-3-carboxamide] | – | – | – | – | ≥ 80 | ≥ 80 | – |
| CCN(C(=O)c1cc(-c2cc(-c3c(C(F)(F)F)c(OC(F)(F)C(F)C(F)(F)F)nn3C)no2)sc1Cl)C1CC1 (stereo not shown) [Example 9, 2-chloro-N-cyclopropyl-N-ethyl-5-[3-[5-(1,1,2,3,3,3-hexafluoropropoxy)-2-methyl-4-(trifluoromethyl)pyrazol-3-yl]isoxazol-5-yl]thiophene-3-carboxamide] | – | – | – | – | ≥ 80 | ≥ 80 | – |
| Cn1nc(OC(F)(F)C(F)C(F)(F)F)c(C(F)(F)F)c1-c1cc(-c2cc(C(=O)NC3(C#N)CC3)c(Cl)s2)on1 (stereo not shown) [Example 10, 2-chloro-N-(1-cyanocyclopropyl)-5-[3-[5-(1,1,2,3,3,3-hexafluoropropoxy)-2-methyl-4-(trifluoromethyl)pyrazol-3-yl]isoxazol-5-yl]thiophene-3-carboxamide] | – | – | – | – | – | – | 218 to 219 |
| CN(C(=O)c1cc(-c2cc(-c3c(C(F)(F)F)c(OC(F)(F)C(F)C(F)(F)F)nn3C)no2)sc1Cl)C1(C#N)CC1 (stereo not shown) [Example 11, 2-chloro-N-(1-cyanocyclopropyl)-5-[3-[5-(1,1,2,3,3,3-hexafluoropropoxy)-2-methyl-4-(trifluoromethyl)pyrazol-3-yl]isoxazol-5-yl]-N-methyl-thiophene-3-carboxamide] | – | – | – | – | ≥ 80 | ≥ 80 | – |
| CCN(C(=O)c1cc(-c2cc(-c3c(C(F)(F)F)c(OC(F)(F)C(F)C(F)(F)F)nn3C)no2)sc1Cl)C1(C#N)CC1 (stereo not shown) [Example 12, 2-chloro-N-(1-cyanocyclopropyl)-N-ethyl-5-[3-[5-(1,1,2,3,3,3-hexafluoropropoxy)-2-methyl-4-(trifluoromethyl)pyrazol-3-yl]isoxazol-5-yl]thiophene-3-carboxamide] | – | – | – | – | ≥ 80 | ≥ 80 | – |
